Measured values taken from patent US9000022B2 (Exelixis Patent Company LLC, priority 2005, dated 2015).

Tested on: LXRα and/or LXRβ
Test: Co-transfection assay (LXRE luciferase reporter, CV-1 cells)
Assay type: cell-based, human
Conditions: tested as described in Example 33; IC50 or EC50 for LXRα and/or LXRβ, isoform not specified; read-out: activity (IC50 or EC50 for LXR)
Description: To measure the ability of compounds to activate or inhibit the transcriptional activity of LXR in a cell based assay, the co-transfection assay was used. It has been shown that LXR functions as a heterodimer with RXR. For the co-transfection assay, expression plasmids for LXR and RXR are introduced via transient transfection into mammalian cells along with a luciferase reporter plasmid that contains one copy of a DNA sequence that is bound by LXR-RXR heterodimers (LXRE; Willy, P. et. al. 1995). Treatment of transfected cells with an LXR agonist increases the transcriptional activity of LXR, which is measured by an increase in luciferase activity.
CV-1 African Green Monkey Kidney Cells Co-transfection expression plasmids, comprising full-length LXRα (pCMX-h LXRα, LXRβ (pCMX-hLXRβ), or RXRα (pCMX-RXR), reporter plasmid (LXREx1-Tk-Luciferase), and control (pCMX-Galactosidase expression vector) (Willey et al. Genes & Development 9 1033-1045 (1995)). Transfection reagent such as FuGENE6 (Roche). 1× Cell lysis buffer (1% Triton X 100 (J T Baker X200-07), 10% Glycerol (J T Baker M778-07), 5 mM Ditriotreitol (Quantum Bioprobe DTT03; add fresh before lysing), 1 mM EGTA (Ethylene Glycol-bis(B-Amino ethyl ether)-N,N,N′,N′-Tetracetic Acid) (Sigma E-4378), 25 mM Tricine (ICN 807420) pH 7.8) 1× Luciferase assay buffer (pH at 7.8) (0.73 mM ATP, 22.3 mM Tricine, 0.11 mM EDTA, 33.3 mM DTT) 1× Luciferrin/CoA (11 mM Luciferin, 3.05 mM Coenzyme A, 10 mM HEPES)
CV-1 cells were prepared 24 hours prior to the experiment by plating them into T-175 flasks or 500 cm^2 dishes in order to achieve 70-80% confluency on the day of the transfection. The number of cells to be transfected was determined by the number of plates to be screened. Each 384 well plate requires 1.92×10^6 cells or 5000 cells per well. DNA Transfection Reagent was prepared by mixing the required plasmid DNAs with a cationic lipid transfection reagent FuGENE6 (Roche) by following the instructions provided with the reagents. Optimal DNA amounts were determined empirically per cell line and size of vessel to be transfected. 10-12 mL of media was added to the DNA Transfection Reagent and this mixture was added to the cells after aspirating media from the T175 cm^2 flask. Cells were then incubated at least 5 hours at 37° C. to prepare screening cells.
Luciferase assay reagent was prepared by combining before use (per 10 mL): 10 mL 1× Luciferase assay buffer; 0.54 mL of 1× Luciferrin/CoA; 0.54 mL of 0.2 M Magnesium sulfate
Assay plates were prepared by dispensing 5 μL, of compound per well of a 384 well plate to achieve final compound concentration of 10 μM and no more than 1% DMSO. Media was removed from the screening cells, the cells trypsinized, harvested cells by centrifugation, counted, and plated at a density of approximately 5000 cells per well in the 384 well assay plate prepared above in a volume of about 45 μL. Assay plates containing both compounds and screening cells (50 μL in total volume) were incubated for 20 hours at 37° C.
After incubation with compounds, media was removed from the cells and lysis buffer (30 μL/well) added. After 30 minutes at ambient temperature, luciferase assay buffer (30 μL/well) was added and the assay plates read on a luminometer (PE Biosystems Northstar reader with on-board injectors, or equivalent). Plates were read immediately after addition of luciferase assay buffer.
The LXR/LNRE co-transfection assay can be used to establish the EC50/IC50 values for potency and percent activity or inhibition for efficacy. Efficacy defines the activity of a compound relative to a high control ((N-(3-((4-fluorophenyl)-(naphthalene-2-sulfonyl)amino)propyl)-2,2-dimethylpropionamide)) or a low control (DMSO/vehicle). The dose response curves are generated from an 8 point curve with concentrations differing by ½ LOG units. Each point represents the average of 4 wells of data from a 384 well plate. […]

How did the IC50 or EC50 (potency, activation or inhibition) turn out when `Cc1cc(-c2cccc(S(C)(=O)=O)c2)ccc1-c1nc(C(C)(C)O)cn1-c1c(C)cccc1C(C)C` [Example 59, 2-(1-(2-isopropyl-6-methylphenyl)-2-(3-methyl-3′-(methylsulfonyl)biphenyl-4-yl)-1H-imidazol-4-yl)propan-2-ol] was run?
The IC50 or EC50 (potency, activation or inhibition) was under 1000 nM.

`CCS(=O)(=O)c1cccc(-c2ccc(-c3nc(C(C)(C)O)cn3-c3c(C)cccc3C(C)C)c(C)c2)c1` [Example 60, 2-(2-(3′-(ethylsulfonyl)-3-methyl-biphenyl-4-yl)-1-(2-isopropyl-6-methylphenyl)-1H-imidazol-4-yl)propan-2-ol] was tested. Which IC50 or EC50 (potency, activation or inhibition) did it give?
Its IC50 or EC50 (potency, activation or inhibition) is under 1000 nM.

`Cc1cc(-c2cccc(S(C)(=O)=O)c2)ccc1-c1nc(C(C)(C)O)cn1-c1ccccc1C(C)C` [Example 61, 2-(1-(2-isopropylphenyl)-2-(3-methyl-3′-(methylsulfonyl)biphenyl-4-yl)-1H-imidazol-4-yl)propan-2-ol] was tested. Which IC50 or EC50 (potency, activation or inhibition) did it give?
Its IC50 or EC50 (potency, activation or inhibition) is under 1000 nM.

Which IC50 or EC50 (potency, activation or inhibition) does the source give for `CCS(=O)(=O)c1cccc(-c2ccc(-c3nc(C(C)(C)O)cn3-c3ccccc3C(C)C)c(C)c2)c1` [Example 62, 2-(2-(3′-(ethylsulfonyl)-3-methyl-biphenyl-4-yl)-1-(2-isopropylphenyl)-1H-imidazol-4-yl)propan-2-ol] here?
The IC50 or EC50 (potency, activation or inhibition) was under 1000 nM.

`CC(C)(O)c1cn(-c2c(Cl)cccc2Cl)c(-c2ccc(-c3cccc(S(C)(=O)=O)c3)cc2)n1` [Example 63, 2-(1-(2,6-dichlorophenyl)-2-(3′-(methylsulfonyl)biphenyl-4-yl)-1H-imidazol-4-yl)propan-2-ol] was tested. Which IC50 or EC50 (potency, activation or inhibition) did it give?
The IC50 or EC50 (potency, activation or inhibition) was under 1000 nM.

With `CCS(=O)(=O)c1cccc(-c2ccc(-c3nc(C(C)(C)O)cn3-c3c(Cl)cccc3Cl)cc2)c1` [Example 64, 2-(1-(2,6-dichlorophenyl)-2-(3′-(ethylsulfonyl)biphenyl-4-yl)-1H-imidazol-4-yl)propan-2-ol] as the compound, how does the IC50 or EC50 (potency, activation or inhibition) read?
The IC50 or EC50 (potency, activation or inhibition) was under 1000 nM.

Which IC50 or EC50 (potency, activation or inhibition) does the source give for `CC(C)(O)c1cn(-c2c(Cl)cccc2Cl)c(-c2ccc(-c3cccc(S(C)(=O)=O)c3)cc2Cl)n1` [Example 65, 2-(2-(3-chloro-3′-(methyl-sulfonyl)biphenyl-4-yl)-1-(2,6-dichlorophenyl)-1H-imidazol-4-yl)propan-2-ol] here?
Its IC50 or EC50 (potency, activation or inhibition) is under 1000 nM.

Which IC50 or EC50 (potency, activation or inhibition) does the source give for `CCS(=O)(=O)c1cccc(-c2ccc(-c3nc(C(C)(C)O)cn3-c3c(Cl)cccc3Cl)c(Cl)c2)c1` [Example 66, 2-(2-(3-chloro-3′-(ethyl-sulfonyl)biphenyl-4-yl)-1-(2,6-dichlorophenyl)-1H-imidazol-4-yl)propan-2-ol] here?
The IC50 or EC50 (potency, activation or inhibition) was under 1000 nM.

Which IC50 or EC50 (potency, activation or inhibition) does the source give for `CC(O)(c1cn(-c2ccc(-c3cccc(S(C)(=O)=O)c3)cc2)c(-c2ccccc2C(F)(F)F)n1)C(F)(F)F` (stereo not drawn) [Example 67] here?
Its IC50 or EC50 (potency, activation or inhibition) is under 1000 nM.

How did the IC50 or EC50 (potency, activation or inhibition) turn out when `CCOC(=O)c1cn(-c2ccc(-c3cccc(S(C)(=O)=O)c3)cc2Cl)c(-c2c(Cl)cccc2Cl)n1` [Example 68, ethyl 1-(3-chloro-3′-(methyl-sulfonyl)biphenyl-4-yl)-2-(2,6-dichlorophenyl)-1H-imidazole-4-carboxylate] was run?
Its IC50 or EC50 (potency, activation or inhibition) is under 1000 nM.

With `CC(=O)c1cn(-c2ccc(-c3cccc(S(C)(=O)=O)c3)cc2)c(-c2c(Cl)cccc2Cl)n1` [Example 69, 1-(2-(2,6-dichlorophenyl)-1-(3′-(methylsulfonyl)biphenyl-4-yl)-1H-imidazol-4-yl)ethanone] as the compound, how does the IC50 or EC50 (potency, activation or inhibition) read?
The IC50 or EC50 (potency, activation or inhibition) was under 1000 nM.

How did the IC50 or EC50 (potency, activation or inhibition) turn out when `C/C(=N\O)c1cn(-c2ccc(-c3cccc(S(C)(=O)=O)c3)cc2)c(-c2c(Cl)cccc2Cl)n1` [Example 70, (E)-1-(2-(2,6-dichlorophenyl)-1-(3′-(methylsulfonyl)biphenyl-4-yl)-1H-imidazol-4-yl)ethanone oxime] was run?
The IC50 or EC50 (potency, activation or inhibition) was under 1000 nM.

For `CCc1ccccc1-c1nc(/C(C)=N/O)cn1-c1ccc(-c2cccc(S(C)(=O)=O)c2)cc1` [Example 71, (E)-1-(2-(2-ethylphenyl)-1-(3′-(methylsulfonyl)biphenyl-4-yl)-1H-imidazol-4-yl)ethanone oxime], which IC50 or EC50 (potency, activation or inhibition) is on record?
The IC50 or EC50 (potency, activation or inhibition) was under 1000 nM.

For `CCC(O)(CC)c1cn(-c2ccc(-c3cccc(S(C)(=O)=O)c3)cc2)c(-c2cccc(Cl)c2Cl)n1` [Example 72, 3-(2-(2,3-dichlorophenyl)-1-(3′-(methylsulfonyl)biphenyl-4-yl)-1H-imidazol-4-yl)pentan-3-ol], which IC50 or EC50 (potency, activation or inhibition) is on record?
Its IC50 or EC50 (potency, activation or inhibition) is under 1000 nM.

`CCC(O)(CC)c1cn(-c2ccc(-c3cccc(S(=O)(=O)CC)c3)cc2)c(-c2cccc(Cl)c2Cl)n1` [Example 73, 3-(2-(2,3-dichlorophenyl)-1-(3′-(ethylsulfonyl)biphenyl-4-yl)-1H-imidazol-4-yl)pentan-3-ol] was tested. Which IC50 or EC50 (potency, activation or inhibition) did it give?
Its IC50 or EC50 (potency, activation or inhibition) is under 1000 nM.

For `CCC(O)(CC)c1cn(-c2ccc(-c3cccc(S(C)(=O)=O)c3)cc2)c(-c2c(Cl)cccc2Cl)n1` [Example 74, 3-(2-(2,6-dichlorophenyl)-1-(3′-(methylsulfonyl)biphenyl-4-yl)-1H-imidazol-4-yl)pentan-3-ol], which IC50 or EC50 (potency, activation or inhibition) is on record?
Its IC50 or EC50 (potency, activation or inhibition) is under 1000 nM.

`Cc1cc(-c2cccc(S(C)(=O)=O)c2)ccc1-n1cc(C(=S)NCC(F)(F)F)nc1-c1ccccc1C(C)C` [Example 75, 2-(2-isopropylphenyl)-1-(3-methyl-3′-(methylsulfonyl)biphenyl-4-yl)-N-(2,2,2-trifluoroethyl)-1H-imidazole-4-carbothioamide] was tested. Which IC50 or EC50 (potency, activation or inhibition) did it give?
The IC50 or EC50 (potency, activation or inhibition) was under 1000 nM.

How did the IC50 or EC50 (potency, activation or inhibition) turn out when `C/C(=N\O)c1cn(-c2ccc(-c3cccc(S(C)(=O)=O)c3)cc2C)c(-c2ccccc2C(C)C)n1` [Example 76, (E)-1-(2-(2-isopropylphenyl)-1-(3-methyl-3′-(methylsulfonyl)biphenyl-4-yl)-1H-imidazol-4-yl)ethanone oxime] was run?
Its IC50 or EC50 (potency, activation or inhibition) is under 1000 nM.

For `C=C(C)c1cn(-c2ccc(-c3cccc(S(=O)(=O)CC)c3)cc2)c(-c2cccc(Cl)c2Cl)n1` [Example 77, 2-(2,3-dichlorophenyl)-1-(3′-(ethylsulfonyl)biphenyl-4-yl)-4-(prop-1-en-2-yl)-1H-imidazole], which IC50 or EC50 (potency, activation or inhibition) is on record?
The IC50 or EC50 (potency, activation or inhibition) was under 1000 nM.

`C=C(C)c1cn(-c2ccc(-c3cccc(S(C)(=O)=O)c3)cc2)c(-c2c(Cl)cccc2Cl)n1` [Example 78, 2-(2,6-dichlorophenyl)-1-(3′-(methylsulfonyl)biphenyl-4-yl)-4-(prop-1-en-2-yl)-1H-imidazole] was tested. Which IC50 or EC50 (potency, activation or inhibition) did it give?
The IC50 or EC50 (potency, activation or inhibition) was under 1000 nM.

Which IC50 or EC50 (potency, activation or inhibition) does the source give for `CC(C)(O)c1cn(-c2ccc(-c3ccc(C(=O)NCc4ccccc4)c(S(C)(=O)=O)c3)cc2Cl)c(-c2c(F)cccc2Cl)n1` [Example 80, N-benzyl-3′-chloro-4′-(2-(2-chloro-6-fluorophenyl)-4-(2-hydroxypropan-2-yl)-1H-imidazol-1-yl)-3-(methyl-sulfonyl)biphenyl-4-carboxamide] here?
Its IC50 or EC50 (potency, activation or inhibition) is 1000 to 10000 nM.

How did the IC50 or EC50 (potency, activation or inhibition) turn out when `CCNC(=O)c1cn(-c2ccc(-c3cccc(S(C)(=O)=O)c3)cc2)c(-c2c(Cl)cccc2Cl)n1` [Example 82, 2-(2,6-dichlorophenyl)-N-ethyl-1-(3′-(methylsulfonyl)biphenyl-4-yl)-1H-imidazole-4-carboxamide] was run?
The IC50 or EC50 (potency, activation or inhibition) was under 1000 nM.

For `CN1CCN(C(=O)c2cn(-c3ccc(-c4cccc(S(C)(=O)=O)c4)cc3)c(-c3c(Cl)cccc3Cl)n2)CC1` [Example 83, (2-(2,6-dichlorophenyl)-1-(3′-(methylsulfonyl)biphenyl-4-yl)-1H-imidazol-4-yl)(4-methylpiperazin-1-yl)methanone], which IC50 or EC50 (potency, activation or inhibition) is on record?
The IC50 or EC50 (potency, activation or inhibition) was 1000 to 10000 nM.

Which IC50 or EC50 (potency, activation or inhibition) does the source give for `CS(=O)(=O)c1cccc(-c2ccc(-n3cc(C(=O)NCCO)nc3-c3c(Cl)cccc3Cl)cc2)c1` [Example 84, 2-(2,6-dichlorophenyl)-N-(2-hydroxyethyl)-1-(3′-(methyl-sulfonyl)biphenyl-4-yl)-1H-imidazole-4-carboxamide] here?
Its IC50 or EC50 (potency, activation or inhibition) is under 1000 nM.
